Source: ChEMBL document CHEMBL5291721, “A preclinical secondary pharmacology resource illuminates target-adverse drug reaction associations of marketed drugs” (Nat Commun, 2023)

Key:
[1] = biological target: T1, Alpha-2C adrenergic receptor (Homo sapiens, UniProt P18825); type: functional
T1 sequence (P18825 whole entry): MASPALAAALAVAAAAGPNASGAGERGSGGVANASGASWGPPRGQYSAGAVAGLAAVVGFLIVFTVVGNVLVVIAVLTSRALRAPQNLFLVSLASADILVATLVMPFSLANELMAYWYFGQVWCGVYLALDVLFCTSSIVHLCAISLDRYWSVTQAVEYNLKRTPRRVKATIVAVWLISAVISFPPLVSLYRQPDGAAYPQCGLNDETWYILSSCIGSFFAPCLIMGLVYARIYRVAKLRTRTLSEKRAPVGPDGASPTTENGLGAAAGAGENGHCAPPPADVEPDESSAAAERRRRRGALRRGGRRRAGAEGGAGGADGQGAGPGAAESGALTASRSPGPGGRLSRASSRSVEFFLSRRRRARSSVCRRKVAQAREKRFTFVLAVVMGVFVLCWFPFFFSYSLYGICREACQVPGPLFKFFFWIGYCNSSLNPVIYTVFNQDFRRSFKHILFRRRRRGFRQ

Estrogen receptor = biological target: T2, Estrogen receptor (Homo sapiens, UniProt P03372)
T2 sequence (P03372 whole entry): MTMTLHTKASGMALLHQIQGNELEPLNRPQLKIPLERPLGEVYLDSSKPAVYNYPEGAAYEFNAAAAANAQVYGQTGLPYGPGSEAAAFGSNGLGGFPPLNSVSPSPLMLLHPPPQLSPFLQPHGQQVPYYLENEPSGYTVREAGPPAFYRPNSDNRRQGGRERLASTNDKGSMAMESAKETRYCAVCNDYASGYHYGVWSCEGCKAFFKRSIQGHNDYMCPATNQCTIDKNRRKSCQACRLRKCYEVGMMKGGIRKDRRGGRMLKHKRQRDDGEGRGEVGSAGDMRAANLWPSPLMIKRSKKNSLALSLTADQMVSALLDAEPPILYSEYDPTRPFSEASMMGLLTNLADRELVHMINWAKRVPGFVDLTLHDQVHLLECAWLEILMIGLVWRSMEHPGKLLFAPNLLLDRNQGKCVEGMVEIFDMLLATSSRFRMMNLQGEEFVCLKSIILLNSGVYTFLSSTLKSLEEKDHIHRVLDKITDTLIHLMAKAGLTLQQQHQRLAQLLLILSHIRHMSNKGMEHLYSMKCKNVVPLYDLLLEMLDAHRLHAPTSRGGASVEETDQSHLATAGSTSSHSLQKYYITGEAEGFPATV

Androgen receptor = biological target: T3, Androgen receptor (Rattus norvegicus, UniProt P15207); type: functional
T3 sequence (P15207 whole entry): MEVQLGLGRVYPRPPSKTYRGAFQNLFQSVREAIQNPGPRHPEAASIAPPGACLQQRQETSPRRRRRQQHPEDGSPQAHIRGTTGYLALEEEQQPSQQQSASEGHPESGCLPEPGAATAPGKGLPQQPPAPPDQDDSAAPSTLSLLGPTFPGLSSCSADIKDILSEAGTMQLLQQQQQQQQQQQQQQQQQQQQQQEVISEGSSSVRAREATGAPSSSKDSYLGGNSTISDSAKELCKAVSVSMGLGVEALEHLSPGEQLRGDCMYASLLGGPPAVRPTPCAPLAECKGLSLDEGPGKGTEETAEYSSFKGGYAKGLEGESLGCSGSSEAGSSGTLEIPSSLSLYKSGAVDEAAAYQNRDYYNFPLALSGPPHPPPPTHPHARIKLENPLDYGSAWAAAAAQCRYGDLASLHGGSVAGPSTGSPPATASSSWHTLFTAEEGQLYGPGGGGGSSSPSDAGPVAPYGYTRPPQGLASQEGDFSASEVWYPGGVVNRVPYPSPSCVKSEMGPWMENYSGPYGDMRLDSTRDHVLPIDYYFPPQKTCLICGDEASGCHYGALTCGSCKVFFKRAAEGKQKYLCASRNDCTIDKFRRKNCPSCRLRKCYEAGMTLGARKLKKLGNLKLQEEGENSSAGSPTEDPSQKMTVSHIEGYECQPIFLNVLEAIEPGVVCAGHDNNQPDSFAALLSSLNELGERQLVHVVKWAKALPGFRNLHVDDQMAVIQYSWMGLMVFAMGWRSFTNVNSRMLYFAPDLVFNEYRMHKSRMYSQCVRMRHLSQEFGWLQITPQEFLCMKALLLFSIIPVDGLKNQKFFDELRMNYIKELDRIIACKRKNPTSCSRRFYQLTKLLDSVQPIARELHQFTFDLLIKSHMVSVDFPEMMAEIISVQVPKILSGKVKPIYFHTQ

[2] = biological target: Gamma-aminobutyric acid receptor subunit alpha-1 (Rattus norvegicus, UniProt P62813)
Chain of Gamma-aminobutyric acid receptor subunit alpha-1 (P62813 whole entry): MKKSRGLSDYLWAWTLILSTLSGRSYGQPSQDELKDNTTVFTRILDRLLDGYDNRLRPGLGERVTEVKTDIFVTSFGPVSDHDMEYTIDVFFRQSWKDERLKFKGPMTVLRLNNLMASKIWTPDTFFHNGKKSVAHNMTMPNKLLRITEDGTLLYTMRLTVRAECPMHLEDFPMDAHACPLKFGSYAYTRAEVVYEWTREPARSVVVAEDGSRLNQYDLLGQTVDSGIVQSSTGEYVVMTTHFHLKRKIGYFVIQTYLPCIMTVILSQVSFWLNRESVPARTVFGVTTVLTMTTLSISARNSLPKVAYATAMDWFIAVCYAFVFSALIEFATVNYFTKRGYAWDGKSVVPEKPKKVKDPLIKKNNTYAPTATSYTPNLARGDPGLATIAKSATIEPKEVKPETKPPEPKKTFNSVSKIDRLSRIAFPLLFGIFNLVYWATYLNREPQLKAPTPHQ

[3] = biological target: Beta-1 adrenergic receptor (Homo sapiens, UniProt P08588); type: functional
Chain of Beta-1 adrenergic receptor (P08588 whole entry): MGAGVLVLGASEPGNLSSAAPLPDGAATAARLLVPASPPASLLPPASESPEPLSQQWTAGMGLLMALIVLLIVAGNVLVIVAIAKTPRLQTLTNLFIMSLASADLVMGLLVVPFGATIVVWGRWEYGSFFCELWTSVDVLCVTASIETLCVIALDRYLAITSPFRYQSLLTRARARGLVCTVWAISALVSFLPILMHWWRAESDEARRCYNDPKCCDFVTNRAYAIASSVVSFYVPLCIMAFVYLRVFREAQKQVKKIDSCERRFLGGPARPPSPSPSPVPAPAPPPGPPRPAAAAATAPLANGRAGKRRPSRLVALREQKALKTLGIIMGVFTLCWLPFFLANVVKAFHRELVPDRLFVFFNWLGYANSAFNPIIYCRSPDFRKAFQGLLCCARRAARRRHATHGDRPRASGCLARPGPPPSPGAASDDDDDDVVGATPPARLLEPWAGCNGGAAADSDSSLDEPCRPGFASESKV

[4] = biological target: T4, Alpha-2B adrenergic receptor (Homo sapiens, UniProt P18089)
T4 sequence (P18089 whole entry): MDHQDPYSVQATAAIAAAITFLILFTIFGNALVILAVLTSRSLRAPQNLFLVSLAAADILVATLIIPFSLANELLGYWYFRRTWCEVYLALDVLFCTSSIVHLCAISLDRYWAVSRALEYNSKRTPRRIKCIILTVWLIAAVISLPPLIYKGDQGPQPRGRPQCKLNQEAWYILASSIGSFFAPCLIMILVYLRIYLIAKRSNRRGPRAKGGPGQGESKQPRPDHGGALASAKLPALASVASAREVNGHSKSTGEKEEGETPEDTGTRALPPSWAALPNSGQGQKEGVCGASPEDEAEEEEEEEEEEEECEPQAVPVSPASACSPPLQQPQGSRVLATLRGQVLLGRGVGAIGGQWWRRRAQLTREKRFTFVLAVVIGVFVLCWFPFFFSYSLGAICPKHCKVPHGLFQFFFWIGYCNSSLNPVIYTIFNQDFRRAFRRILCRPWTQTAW

[5] = biological target: 5-hydroxytryptamine receptor 2A (Homo sapiens, UniProt P28223); type: functional, cell-based
Chain of 5-hydroxytryptamine receptor 2A (P28223 whole entry): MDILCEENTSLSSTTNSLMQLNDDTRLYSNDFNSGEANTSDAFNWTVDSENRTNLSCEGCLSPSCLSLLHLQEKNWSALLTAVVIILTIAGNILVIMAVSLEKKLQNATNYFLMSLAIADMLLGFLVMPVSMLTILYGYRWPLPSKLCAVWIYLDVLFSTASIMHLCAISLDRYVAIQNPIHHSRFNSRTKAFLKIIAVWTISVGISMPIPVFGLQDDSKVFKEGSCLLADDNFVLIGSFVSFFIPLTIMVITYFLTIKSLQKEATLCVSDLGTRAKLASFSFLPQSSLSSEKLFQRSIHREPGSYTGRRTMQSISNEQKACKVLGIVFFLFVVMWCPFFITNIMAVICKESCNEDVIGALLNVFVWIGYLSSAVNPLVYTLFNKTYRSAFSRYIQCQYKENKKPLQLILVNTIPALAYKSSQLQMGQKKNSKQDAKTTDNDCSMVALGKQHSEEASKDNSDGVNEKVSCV

Histamine H2 receptor = Histamine H2 receptor (Homo sapiens, UniProt P25021); type: functional, cell-based
Chain of Histamine H2 receptor (P25021 whole entry): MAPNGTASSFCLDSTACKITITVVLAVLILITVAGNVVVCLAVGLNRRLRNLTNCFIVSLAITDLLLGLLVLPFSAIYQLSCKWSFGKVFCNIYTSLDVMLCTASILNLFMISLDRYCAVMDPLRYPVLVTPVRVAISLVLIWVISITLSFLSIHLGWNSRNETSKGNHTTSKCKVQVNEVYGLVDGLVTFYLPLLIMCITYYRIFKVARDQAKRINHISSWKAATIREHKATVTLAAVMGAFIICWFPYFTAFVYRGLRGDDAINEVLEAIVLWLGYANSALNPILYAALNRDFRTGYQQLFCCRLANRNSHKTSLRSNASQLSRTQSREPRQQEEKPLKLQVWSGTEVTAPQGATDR

[6] = biological target: 5-hydroxytryptamine receptor 2B (Homo sapiens, UniProt P41595); type: functional, cell-based
Chain of 5-hydroxytryptamine receptor 2B (P41595 whole entry): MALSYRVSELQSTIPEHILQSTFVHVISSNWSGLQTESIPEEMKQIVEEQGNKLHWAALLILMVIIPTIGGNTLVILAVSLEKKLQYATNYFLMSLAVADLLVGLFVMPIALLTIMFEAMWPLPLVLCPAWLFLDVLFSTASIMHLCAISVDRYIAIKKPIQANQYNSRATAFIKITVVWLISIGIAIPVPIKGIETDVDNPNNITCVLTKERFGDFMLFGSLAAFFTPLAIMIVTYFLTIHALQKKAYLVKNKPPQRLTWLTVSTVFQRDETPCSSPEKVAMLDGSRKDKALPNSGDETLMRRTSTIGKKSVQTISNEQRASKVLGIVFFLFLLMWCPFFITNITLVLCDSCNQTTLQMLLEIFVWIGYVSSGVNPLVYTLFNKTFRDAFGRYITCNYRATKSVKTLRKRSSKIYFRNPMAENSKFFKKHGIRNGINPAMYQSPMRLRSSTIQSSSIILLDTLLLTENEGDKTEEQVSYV

Cannabinoid receptor 1 = Cannabinoid receptor 1 (Homo sapiens, UniProt P21554)
Chain of Cannabinoid receptor 1 (P21554 whole entry): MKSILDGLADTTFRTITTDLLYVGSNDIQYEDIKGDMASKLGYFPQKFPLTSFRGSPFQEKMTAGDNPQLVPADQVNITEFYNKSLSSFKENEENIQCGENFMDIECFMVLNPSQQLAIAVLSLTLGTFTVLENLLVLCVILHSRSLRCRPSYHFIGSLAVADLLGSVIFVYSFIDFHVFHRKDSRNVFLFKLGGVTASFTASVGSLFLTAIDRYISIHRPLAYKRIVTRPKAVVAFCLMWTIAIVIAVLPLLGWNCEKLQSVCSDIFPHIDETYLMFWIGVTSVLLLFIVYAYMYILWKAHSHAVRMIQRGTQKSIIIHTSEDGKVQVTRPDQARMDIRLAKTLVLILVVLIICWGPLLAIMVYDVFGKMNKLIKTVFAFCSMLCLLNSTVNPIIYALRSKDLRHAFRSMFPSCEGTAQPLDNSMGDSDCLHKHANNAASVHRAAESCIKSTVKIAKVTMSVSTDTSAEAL
Further: assay procedure not described here.

- AC50 [1]: 20 µM
- AC50 (Estrogen receptor): > 30 µM
- AC50 (Androgen receptor): > 30 µM
- AC50 [2]: > 30 µM
- AC50 [3]: > 30 µM
- AC50 [4]: > 30 µM
- AC50 [5]: > 30 µM
- AC50 (Histamine H2 receptor): > 30 µM
- AC50 [6]: > 30 µM
- AC50 (Cannabinoid receptor 1): > 30 µM
Sequence: HYDROXOCOBALAMIN
